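96-well plates; 48 h exposure; 5 concentrations. Endpoints by linear interpolation between flanking doses. Not reached: highest tested concentration assigned. Definition used: TGI = concentration required for complete inhibition of growth.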
Tests used:
Test in all cases: NCI anticancer screen, dose series, 48 h
[1] = tested on: SNB-75 CNS
[2] = tested on: T-47D breast
[3] = tested on: HL-60(TB) leukemia
[4] = tested on: RXF 393 renal
[5] = tested on: LOX IMVI melanoma
[6] = tested on: U251 CNS
[7] = tested on: HS 578T breast
[8] = tested on: UACC-257 melanoma
[9] = tested on: NCI-H226 lung
[10] = tested on: HOP-62 NSCLC
[11] = tested on: PC-3 prostate
[12] = tested on: KM12 colon
[13] = tested on: TK-10 renal
[14] = tested on: UO-31 renal
[15] = tested on: SK-MEL-28 melanoma
[16] = tested on: MDA-MB-231 breast
[17] = tested on: NCI-H23 lung
[18] = tested on: M14 melanoma
[19] = tested on: RPMI-8226 leukemia
[20] = tested on: COLO 205 colon
[21] = tested on: SF-539 CNS
[22] = tested on: SN12C renal
[23] = tested on: ACHN renal
[24] = tested on: SK-MEL-5 melanoma
[25] = tested on: 786-0 renal
[26] = tested on: SW-620 colon
[27] = tested on: EKVX NSCLC
[28] = tested on: HOP-92 NSCLC
[29] = tested on: CCRF-CEM leukemia
[30] = tested on: HCC-2998 colon
[31] = tested on: SK-MEL-2 melanoma
[32] = tested on: DU-145 prostate
[33] = tested on: BT-549 breast
[34] = tested on: NCI/ADR-RES ovarian
[35] = tested on: K-562 leukemia
[36] = tested on: MOLT-4 leukemia
[37] = tested on: MDA-N
[38] = tested on: MCF7 breast
[39] = tested on: HT29 colon
[40] = tested on: OVCAR-5 ovarian
[41] = tested on: NCI-H460 lung
[42] = tested on: HCT-116 colon
[43] = tested on: MDA-MB-435
[44] = tested on: OVCAR-4 ovarian
[45] = tested on: SK-OV-3 ovarian
[46] = tested on: SF-268 CNS
[47] = tested on: A498 renal
[48] = tested on: HCT-15 colon
[49] = tested on: SNB-19 CNS
[50] = tested on: SF-295 CNS
[51] = tested on: OVCAR-3 ovarian
[52] = tested on: IGROV1 ovarian
[53] = tested on: UACC-62 melanoma
[54] = tested on: CAKI-1 renal
[55] = tested on: OVCAR-8 ovarian
[56] = tested on: MALME-3M melanoma
[57] = tested on: NCI-H522 lung
[58] = tested on: A549 NSCLC

Oc1ccc2c(c1)OCC1c3ccccc3OC21 (centres undefined)
TGI [1]: > 100 µM
TGI [2]: > 100 µM
TGI [3]: 83.4 µM
TGI [4]: > 100 µM
TGI [5]: > 100 µM
TGI [6]: > 100 µM
TGI [7]: > 100 µM
TGI [8]: > 100 µM
TGI [9]: > 100 µM
TGI [10]: > 100 µM
TGI [11]: > 100 µM
TGI [12]: > 100 µM
TGI [13]: > 100 µM
TGI [14]: > 100 µM
TGI [15]: > 100 µM
TGI [16]: > 100 µM
TGI [17]: > 100 µM
TGI [18]: > 100 µM
TGI [19]: > 100 µM
TGI [20]: > 100 µM
TGI [21]: > 100 µM
TGI [22]: > 100 µM
TGI [23]: > 100 µM
TGI [24]: > 100 µM
TGI [25]: > 100 µM
TGI [26]: > 100 µM
TGI [27]: 86.7 µM
TGI [28]: > 100 µM
TGI [29]: > 100 µM
TGI [30]: > 100 µM
TGI [31]: > 100 µM
TGI [32]: > 100 µM
TGI [33]: > 100 µM
TGI [34]: > 100 µM
TGI [35]: > 100 µM
TGI [36]: 65.2 µM
TGI [37]: > 100 µM
TGI [38]: > 100 µM
TGI [39]: > 100 µM
TGI [40]: > 100 µM
TGI [41]: > 100 µM
TGI [42]: > 100 µM
TGI [43]: > 100 µM
TGI [44]: > 100 µM
TGI [45]: > 100 µM
TGI [46]: > 100 µM
TGI [47]: > 100 µM
TGI [48]: > 100 µM
TGI [49]: > 100 µM
TGI [50]: > 100 µM
TGI [51]: > 100 µM
TGI [52]: > 100 µM
TGI [53]: > 100 µM
TGI [54]: > 100 µM
TGI [55]: > 100 µM

CC1=C[C@H](O)[C@@]2(C)[C@@H]([C@@H]1C)[C@H]1CC[C@@H]3[C@@]4(C)CC[C@H](O)C(C)(C)[C@@H]4CC[C@@]3(C)[C@]1(C)C[C@@H]2O
TGI [2]: 28.9 µM
TGI [4]: 34.1 µM
TGI [5]: 54 µM
TGI [6]: 35.2 µM
TGI [7]: 55 µM
TGI [8]: 34.5 µM
TGI [9]: 45.7 µM
TGI [10]: 33.4 µM
TGI [11]: 35.1 µM
TGI [12]: 39.2 µM
TGI [13]: 36.8 µM
TGI [14]: 33.2 µM
TGI [15]: 34.4 µM
TGI [16]: 35.1 µM
TGI [17]: 45.3 µM
TGI [18]: 31.6 µM
TGI [20]: 37.9 µM
TGI [22]: 29.2 µM
TGI [24]: 30.4 µM
TGI [25]: 28.2 µM
TGI [26]: 47.3 µM
TGI [27]: 25.6 µM
TGI [28]: 29.6 µM
TGI [29]: 40.5 µM
TGI [30]: 33 µM
TGI [31]: 38.4 µM
TGI [32]: 31 µM
TGI [33]: 45.1 µM
TGI [34]: 44.5 µM
TGI [35]: 48.2 µM
TGI [36]: 34.5 µM
TGI [37]: 29.7 µM
TGI [39]: 27.1 µM
TGI [40]: 29.4 µM
TGI [41]: 33.4 µM
TGI [56]: 40.7 µM
TGI [57]: 38 µM
TGI [42]: 25.1 µM
TGI [43]: 39.3 µM
TGI [44]: 33.7 µM
TGI [45]: 35.7 µM
TGI [46]: 25.3 µM
TGI [48]: 41.3 µM
TGI [49]: 30.1 µM
TGI [50]: 31.1 µM
TGI [51]: 31.4 µM
TGI [52]: 41.2 µM
TGI [53]: 35.3 µM
TGI [58]: 26.9 µM
TGI [54]: 36.6 µM
TGI [55]: 48 µM

O=S(=O)(O)c1ccc(N=Nc2ccc(N=Nc3c(O)c(S(=O)(=O)O)cc4cc(S(=O)(=O)O)ccc34)cc2)cc1
TGI [2]: > 100 µM
TGI [3]: > 100 µM
TGI [4]: > 100 µM
TGI [6]: > 100 µM
TGI [7]: > 100 µM
TGI [8]: > 100 µM
TGI [9]: > 100 µM
TGI [10]: > 100 µM
TGI [11]: > 100 µM
TGI [12]: > 100 µM
TGI [13]: > 100 µM
TGI [14]: > 100 µM
TGI [15]: > 100 µM
TGI [16]: > 100 µM
TGI [17]: > 100 µM
TGI [18]: > 100 µM
TGI [19]: > 100 µM
TGI [20]: > 100 µM
TGI [21]: > 100 µM
TGI [22]: > 100 µM
TGI [23]: > 100 µM
TGI [24]: > 100 µM
TGI [25]: > 100 µM
TGI [26]: > 100 µM
TGI [27]: > 100 µM
TGI [28]: > 100 µM
TGI [29]: > 100 µM
TGI [30]: > 100 µM
TGI [31]: > 100 µM
TGI [32]: > 100 µM
TGI [33]: > 100 µM
TGI [34]: > 100 µM
TGI [35]: > 100 µM
TGI [36]: > 100 µM
TGI [37]: > 100 µM
TGI [38]: > 100 µM
TGI [39]: > 100 µM
TGI [40]: > 100 µM
TGI [41]: > 100 µM
TGI [56]: > 100 µM
TGI [57]: > 100 µM
TGI [42]: > 100 µM
TGI [43]: > 100 µM
TGI [44]: > 100 µM
TGI [45]: > 100 µM
TGI [46]: > 100 µM
TGI [48]: > 100 µM
TGI [49]: > 100 µM
TGI [50]: > 100 µM
TGI [51]: > 100 µM
TGI [52]: > 100 µM
TGI [53]: > 100 µM
TGI [58]: > 100 µM
TGI [54]: > 100 µM
TGI [55]: > 100 µM

Cc1ccc(Nc2nc(C)c(C(=O)CC(=O)C(=O)Nc3c(C)cccc3C(C)(C)C)s2)cc1
TGI [2]: > 100 µM
TGI [3]: > 100 µM
TGI [4]: > 100 µM
TGI [5]: > 100 µM
TGI [6]: > 100 µM
TGI [7]: > 100 µM
TGI [8]: > 100 µM
TGI [9]: > 100 µM
TGI [10]: > 100 µM
TGI [11]: > 100 µM
TGI [12]: > 100 µM
TGI [13]: > 100 µM
TGI [14]: > 100 µM
TGI [16]: > 100 µM
TGI [17]: > 100 µM
TGI [18]: > 100 µM
TGI [19]: > 100 µM
TGI [20]: > 100 µM
TGI [21]: > 100 µM
TGI [22]: > 100 µM
TGI [23]: > 100 µM
TGI [24]: > 100 µM
TGI [25]: > 100 µM
TGI [26]: > 100 µM
TGI [27]: > 100 µM
TGI [28]: > 100 µM
TGI [29]: > 100 µM
TGI [30]: > 100 µM
TGI [31]: > 100 µM
TGI [32]: > 100 µM
TGI [33]: > 100 µM
TGI [34]: > 100 µM
TGI [35]: > 100 µM
TGI [36]: > 100 µM
TGI [37]: > 100 µM
TGI [38]: > 100 µM
TGI [39]: > 100 µM
TGI [40]: > 100 µM
TGI [41]: > 100 µM
TGI [57]: > 100 µM
TGI [42]: > 100 µM
TGI [43]: > 100 µM
TGI [44]: > 100 µM
TGI [45]: > 100 µM
TGI [46]: > 100 µM
TGI [47]: > 100 µM
TGI [48]: > 100 µM
TGI [49]: > 100 µM
TGI [50]: > 100 µM
TGI [51]: > 100 µM
TGI [52]: > 100 µM
TGI [53]: > 100 µM
TGI [58]: > 100 µM
TGI [54]: > 100 µM
TGI [55]: > 100 µM

CC(C)OP(=O)(c1ccccc1)c1ccc2c(c1)OCCOCCOCCOCCO2 (centres undefined)
TGI [1]: > 100 µM
TGI [2]: > 100 µM
TGI [3]: > 100 µM
TGI [5]: > 100 µM
TGI [7]: > 100 µM
TGI [8]: > 100 µM
TGI [9]: > 100 µM
TGI [10]: > 100 µM
TGI [11]: > 100 µM
TGI [12]: > 100 µM
TGI [13]: > 100 µM
TGI [14]: > 100 µM
TGI [15]: > 100 µM
TGI [16]: > 100 µM
TGI [17]: > 100 µM
TGI [19]: > 100 µM
TGI [20]: > 100 µM
TGI [21]: > 100 µM
TGI [22]: > 100 µM
TGI [23]: > 100 µM
TGI [24]: > 100 µM
TGI [25]: > 100 µM
TGI [26]: > 100 µM
TGI [27]: > 100 µM
TGI [29]: > 100 µM
TGI [30]: > 100 µM
TGI [32]: > 100 µM
TGI [33]: > 100 µM
TGI [35]: > 100 µM
TGI [36]: > 100 µM
TGI [37]: > 100 µM
TGI [38]: > 100 µM
TGI [39]: > 100 µM
TGI [41]: > 100 µM
TGI [56]: > 100 µM
TGI [57]: > 100 µM
TGI [42]: > 100 µM
TGI [43]: > 100 µM
TGI [45]: > 100 µM
TGI [46]: > 100 µM
TGI [47]: > 100 µM
TGI [48]: > 100 µM
TGI [49]: > 100 µM
TGI [50]: > 100 µM
TGI [52]: > 100 µM
TGI [53]: > 100 µM
TGI [58]: > 100 µM
TGI [55]: > 100 µM

Source: PubChem BioAssay (NCI)
